From ChEMBL document CHEMBL1201862, “PubChem BioAssay data set” (2004)
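Following 48 hours of exposure in 96-well plates, responses at five concentrations were used to interpolate endpoints linearly. At the GI50, growth is halved.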 Active and inactive are the calls of the source. No stated cut-off is given here; in the data, active = GI50 up to about 1.1 µM and inactive = higher.

Assays:
Assay in all cases: inhibition of tumour cell growth, NCI panel, 48 h
[1] = test system: MOLT-4
[2] = test system: HL-60
[3] = test system: M14
[4] = test system: Malme-3M
[5] = test system: ACHN
[6] = test system: SNB-75
[7] = test system: NCI-H522
[8] = test system: NCI-H460
[9] = test system: HOP-62
[10] = test system: K562
[11] = test system: 786-0
[12] = test system: UO-31
[13] = test system: SF-539
[14] = test system: HOP-92
[15] = test system: UACC-62
[16] = test system: IGROV-1
[17] = test system: RXF 393
[18] = test system: DMS-273
[19] = test system: SR

Measured: GI50

O=C(c1ccccc1)C(c1ccccc1)C1(O)C(=O)Nc2c(Cl)ccc(Cl)c21 (stereo not given)
inactive: [1] 15.9 µM | [2] 15.6 µM | [3] 16.8 µM | [4] 17.4 µM | [5] 16.9 µM | [6] 16.8 µM | [7] 18.5 µM | [8] 14.3 µM | [9] 21.4 µM | [10] 12.5 µM | [11] 19.5 µM | [12] 20.2 µM | [13] 20.3 µM | [14] 19.6 µM | [15] 15.6 µM | [16] 20.6 µM | [17] 19.5 µM | [18] 14.4 µM

C/C(CN1C(=O)c2ccccc2C1=O)=N\NS(C)(=O)=O
inactive: [1] > 100 µM | [2] > 100 µM | [3] > 100 µM | [4] > 100 µM | [5] > 100 µM | [6] > 100 µM | [7] > 100 µM | [8] > 100 µM | [9] > 100 µM | [10] > 100 µM | [11] > 100 µM | [12] > 100 µM | [13] > 100 µM | [15] > 100 µM | [16] > 100 µM | [17] > 100 µM | [18] > 100 µM

O=C(O)CCSC(=O)Nc1cccc2ccccc12
inactive: [1] > 100 µM | [3] > 100 µM | [4] > 100 µM | [5] > 100 µM | [6] > 100 µM | [8] > 100 µM | [9] > 100 µM | [10] > 100 µM | [11] > 100 µM | [12] > 100 µM | [13] > 100 µM | [14] > 100 µM | [15] > 100 µM | [16] > 100 µM | [19] > 100 µM | [17] > 100 µM | [18] > 100 µM

O=C(Cc1ccccc1)NN1C(=O)C(Cl)C1c1ccc(O)cc1 (stereo not given)
inactive: [1] > 100 µM | [2] 62.7 µM | [3] > 100 µM | [4] > 100 µM | [5] > 100 µM | [6] 47.2 µM | [7] > 100 µM | [8] > 100 µM | [9] > 100 µM | [10] > 100 µM | [11] > 100 µM | [12] 64.7 µM | [15] > 100 µM | [16] > 100 µM | [19] 43.1 µM | [17] > 100 µM | [18] > 100 µM

N/C(=N\N=C=C1C(=O)Nc2ccc(F)cc21)NO
inactive: [1] > 100 µM | [2] 47.5 µM | [3] > 100 µM | [4] > 100 µM | [5] 59.8 µM | [6] 21.3 µM | [7] 86.1 µM | [8] 74.5 µM | [9] > 100 µM | [10] 95.9 µM | [11] > 100 µM | [13] > 100 µM | [14] 65.3 µM | [15] 39.3 µM | [16] > 100 µM | [19] > 100 µM | [17] > 100 µM | [18] > 100 µM

COC1=CC(=O)C2C(C1=O)C(c1ccc(Cl)cc1)[C@@H]2C (stereo not given in full)
inactive: [1] 31.6 µM | [2] 22.2 µM | [3] 25.7 µM | [4] 23 µM | [5] 17.3 µM | [6] 17.4 µM | [7] 15.2 µM | [8] 30.1 µM | [9] 39.1 µM | [10] 28.3 µM | [11] 24.4 µM | [12] 19.7 µM | [13] 22.8 µM | [14] 24.5 µM | [15] 24.7 µM | [16] 55.3 µM | [17] 24.1 µM | [18] 41 µM

COC(=O)c1cc(Br)c(Br)n1C
inactive: [1] 70.3 µM | [2] > 100 µM | [3] > 100 µM | [4] > 100 µM | [5] > 100 µM | [6] > 100 µM | [7] 39.4 µM | [9] > 100 µM | [10] > 100 µM | [11] > 100 µM | [12] > 100 µM | [13] > 100 µM | [14] > 100 µM | [15] > 100 µM | [16] > 100 µM | [19] 33.9 µM | [17] > 100 µM | [18] > 100 µM

COc1ccc(/C=C\c2cc(OC)c(OC(C)=O)c(OC)c2)cc1
inactive: [1] 6.43 µM | [3] 18.2 µM | [4] 19 µM | [5] 27.9 µM | [6] 2.84 µM | [7] 15.5 µM | [8] 2.49 µM | [9] 5.92 µM | [10] 2.03 µM | [11] 14.9 µM | [12] 15.7 µM | [13] 2.32 µM | [14] 19.1 µM | [15] 8.15 µM | [16] 29.7 µM | [19] 13.3 µM | [18] 5.31 µM
